Measured values as given in the supplement of paper PMC11208160.

Test: recombinant barcode read abundance after kanamycin selection (control-corrected) (log10(CPM+1)); higher = more efficient recombination; sequences stand for … in AGTGCAGAGAAAATCGGCCAGTTTTCTCTGCCTGCAGTCCGCATGCCGT…AGATTTATGCAGCGGACTGCCTTTCTCCCAAAGTGATAAACCGGACAGTATCATGGACCGGTTTTCCCGGTAATCCGTATTTGCAAGGTTGGTTTCACT; site = the 11-nt target
How it was run: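 Recombination efficiency in this pooled E. coli screen uses counts per million of barcodes at recombinant junctions, averaged and corrected against the control. The reported form is log10(CPM+1). Two replicates were plated on chloramphenicol/ampicillin LB agar as control and two on chloramphenicol/ampicillin/kanamycin with 0.1 mM IPTG.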
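Also: IS621 recombinase and bridge RNA in Escherichia coli cells.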

Sequence | recombinant barcode read abundance (log10)
CGACACACTTGGGTTCTAACCTGTTGCCT (site CGGCACACTAG) | 0.0559
CGACACACTTGGGTTCTAACCTGTTGCCT (site CGTCACACTAG) | 0.0536
CGACAGGCTTGGGTTCTAACCTGTTGCCT (site AGACTGGCTAG) | 0.073
CGACAGGCTTGGGTTCTAACCTGTTGCCT (site CGACAGGCTAG) | 0.439
CGACGCACTTGGGTTCTAACCTGTTGCGG (site CGACGCACTCC) | 0.584
CGACGCACTTGGGTTCTAACCTGTTGCGG (site TAGTTGTCTAA) | 0.0412
CGAGACGCTTGGGTTCTAACCTGTTGCCT (site CCATACGCTAG) | 0.109
CGAGACGCTTGGGTTCTAACCTGTTGCCT (site CGAGACGCTAG) | 1.87
CGAGAGACTTGGGTTCTAACCTGTTGCTT (site CAAGAGTCTAA) | 0.0807
CGAGAGACTTGGGTTCTAACCTGTTGCTT (site CGAGAGACTAA) | 0.994
CGAGAGTCTTGGGTTCTAACCTGTTGCGG (site AGAGAGGCTCC) | 0.119
CGAGAGTCTTGGGTTCTAACCTGTTGCGG (site CGAGAGTCTCC) | 1.31
CGAGATTCTTGGGTTCTAACCTGTTGCCT (site CAAGATTCTAG) | 0.331
CGAGATTCTTGGGTTCTAACCTGTTGCCT (site CCAGATTCTAG) | 0.271
CGAGATTCTTGGGTTCTAACCTGTTGCCT (site CGAGATTCTAG) | 0.755
CGAGATTCTTGGGTTCTAACCTGTTGCCT (site CTAGATTCTAG) | 0.332
CGAGCTCCTTGGGTTCTAACCTGTTGCGT (site CGAGCTCCTAA) | 0.0215
CGAGCTCCTTGGGTTCTAACCTGTTGCGT (site CGAGCTCCTAC) | 2.04
CGAGCTCCTTGGGTTCTAACCTGTTGCGT (site CGAGCTCCTAG) | 0.813
CGAGCTCCTTGGGTTCTAACCTGTTGCGT (site CGAGCTCCTAT) | 0.766
CGAGGACCTTGGGTTCTAACCTGTTGCCT (site CCAGGACCTAG) | 0.729
CGAGGACCTTGGGTTCTAACCTGTTGCCT (site CGAGGACCTAG) | 2.3

Sequence | recombinant barcode read abundance (log10)
CGAGGGACTTGGGTTCTAACCTGTTGCCT (site CGAGGGACTAG) | 1.81
CGAGGGACTTGGGTTCTAACCTGTTGCCT (site CGAGGGCCTAG) | 0.0632
CGAGGGACTTGGGTTCTAACCTGTTGCCT (site CGAGGGGCTAG) | 0.807
CGAGGGACTTGGGTTCTAACCTGTTGCCT (site CGAGGGTCTAG) | 0.056
CGAGGGCCTTGGGTTCTAACCTGTTGCCT (site CGAGGGACTAG) | 0.049
CGAGGGCCTTGGGTTCTAACCTGTTGCCT (site CGAGGGCCTAG) | 0.603
CGAGGGCCTTGGGTTCTAACCTGTTGCCT (site CGAGGGGCTAG) | 0.0635
CGAGGGCCTTGGGTTCTAACCTGTTGCCT (site CGAGGGTCTAG) | 0.345
CGAGTGACTTGGGTTCTAACCTGTTGCAG (site ATTAACTCTAG) | 0.0869
CGAGTGACTTGGGTTCTAACCTGTTGCAG (site CGAGTGACTCT) | 1.32
CGATGGACTTGGGTTCTAACCTGTTGCCG (site CAATGGGCTCG) | 0.102
CGATGGACTTGGGTTCTAACCTGTTGCCG (site CGATGGACTCG) | 0.956
CGATGTCCTTGGGTTCTAACCTGTTGCCT (site CGATGTCCTAG) | 0.864
CGATGTCCTTGGGTTCTAACCTGTTGCCT (site CGATGTGCTAG) | 0.039
CGATTACCTTGGGTTCTAACCTGTTGCCT (site CGATTAACTAG) | 0.0753
CGATTACCTTGGGTTCTAACCTGTTGCCT (site CGATTACCTAG) | 0.264
CGATTACCTTGGGTTCTAACCTGTTGCCT (site CGATTAGCTAG) | 0.38
CGATTACCTTGGGTTCTAACCTGTTGCCT (site CGATTATCTAG) | 0.11
CGATTAGCTTGGGTTCTAACCTGTTGCCT (site CGATTAACTAG) | 0.161
CGATTAGCTTGGGTTCTAACCTGTTGCCT (site CGATTACCTAG) | 0.038
CGATTAGCTTGGGTTCTAACCTGTTGCCT (site CGATTAGCTAG) | 0.169
CGATTAGCTTGGGTTCTAACCTGTTGCCT (site CGATTATCTAG) | 0.186

Sequence | recombinant barcode read abundance (log10)
CGCACGTCTTGGGTTCTAACCTGTTGCTT (site CACAAGTCTAA) | 0.185
CGCACGTCTTGGGTTCTAACCTGTTGCTT (site CGCACGTCTAA) | 0.0911
CGCCACACTTGGGTTCTAACCTGTTGCCT (site CGACACACTAG) | 0.426
CGCCACACTTGGGTTCTAACCTGTTGCCT (site CGCCACACTAG) | 0.296
CGCCACACTTGGGTTCTAACCTGTTGCCT (site CGGCACACTAG) | 0.689
CGCCACACTTGGGTTCTAACCTGTTGCCT (site CGTCACACTAG) | 1.22
CGCCGAACTTGGGTTCTAACCTGTTGCCT (site AGCCGAACTAG) | 0.0619
CGCCGAACTTGGGTTCTAACCTGTTGCCT (site CGCCGAACTAG) | 0.0225
CGCCGAACTTGGGTTCTAACCTGTTGCCT (site GGCCGAACTAG) | 0.339
CGCCGAACTTGGGTTCTAACCTGTTGCCT (site TGCCGAACTAG) | 0.0386
CGCCTGCCTTGGGTTCTAACCTGTTGCCT (site CGCCAGCCTAG) | 0.119
CGCCTGCCTTGGGTTCTAACCTGTTGCCT (site CGCCTGCCTAG) | 0.113
CGCCTTCCTTGGGTTCTAACCTGTTGCAT (site CGCCATCCTAT) | 0.121
CGCCTTCCTTGGGTTCTAACCTGTTGCAT (site CGCCCTCCTAT) | 0.157
CGCCTTCCTTGGGTTCTAACCTGTTGCAT (site CGCCGTCCTAT) | 0.0857
CGCCTTCCTTGGGTTCTAACCTGTTGCAT (site CGCCTTCCTAT) | 0.0767
CGCGCAGCTTGGGTTCTAACCTGTTGCCT (site CGAGCAGCTAG) | 0.382
CGCGCAGCTTGGGTTCTAACCTGTTGCCT (site CGCGCAGCTAG) | 0.267
CGCGCAGCTTGGGTTCTAACCTGTTGCCT (site CGGGCAGCTAG) | 0.135
CGCGCAGCTTGGGTTCTAACCTGTTGCCT (site CGTGCAGCTAG) | 0.416
CGCGTAACTTGGGTTCTAACCTGTTGCCT (site CGCGCAACTAG) | 0.112
CGCGTAACTTGGGTTCTAACCTGTTGCCT (site CGCGTAACTAG) | 0.123

Sequence | recombinant barcode read abundance (log10)
CGCTCCTCTTGGGTTCTAACCTGTTGCAT (site CGCTCCTCTAT) | 0
CGCTCCTCTTGGGTTCTAACCTGTTGCAT (site GCTCGACCTCA) | 0.177
CGCTCCTCTTGGGTTCTAACCTGTTGCCT (site AGCTCCTCTAG) | 0.0659
CGCTCCTCTTGGGTTCTAACCTGTTGCCT (site CGCTCCTCTAG) | 0.027
CGCTCCTCTTGGGTTCTAACCTGTTGCCT (site GGCTCCTCTAG) | 0.0456
CGCTCCTCTTGGGTTCTAACCTGTTGCCT (site TGCTCCTCTAG) | 0.103
CGCTGACCTTGGGTTCTAACCTGTTGCCT (site CGCTGACCTAG) | 0.0666
CGCTGACCTTGGGTTCTAACCTGTTGCCT (site GCAACCTCTTA) | 0.11
CGCTGATCTTGGGTTCTAACCTGTTGCCT (site AGCTGATCTAG) | 0.0494
CGCTGATCTTGGGTTCTAACCTGTTGCCT (site CGCTGATCTAG) | 0.0169
CGCTGATCTTGGGTTCTAACCTGTTGCCT (site GGCTGATCTAG) | 0.14
CGCTGATCTTGGGTTCTAACCTGTTGCCT (site TGCTGATCTAG) | 0.0802
CGCTGCCCTTGGGTTCTAACCTGTTGCTT (site CGCTGACCTAA) | 0.102
CGCTGCCCTTGGGTTCTAACCTGTTGCTT (site CGCTGCCCTAA) | 0.113
CGCTGCCCTTGGGTTCTAACCTGTTGCTT (site CGCTGGCCTAA) | 0.0609
CGCTGCCCTTGGGTTCTAACCTGTTGCTT (site CGCTGTCCTAA) | 0.512
CGCTGGACTTGGGTTCTAACCTGTTGCCT (site CGCTAGACTAG) | 0.0452
CGCTGGACTTGGGTTCTAACCTGTTGCCT (site CGCTCGACTAG) | 0.0114
CGCTGGACTTGGGTTCTAACCTGTTGCCT (site CGCTGGACTAG) | 0.158
CGCTGGACTTGGGTTCTAACCTGTTGCCT (site CGCTTGACTAG) | 0.0799
